Assay results taken from PubChem BioAssay (NCI).
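A five-concentration, 48-hour dose response in 96-well plates underlies each endpoint, interpolated linearly between surrounding concentrations. The concentration for full growth arrest is given as TGI.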

Legend:
Assay in all cases: growth of human tumour cells (NCI), 48 h
A498 renal = test system: A498 renal
CAKI-1 renal = test system: CAKI-1 renal
COLO 205 colon = test system: COLO 205 colon
LOX IMVI melanoma = test system: LOX IMVI melanoma
M14 melanoma = test system: M14 melanoma
MALME-3M melanoma = test system: MALME-3M melanoma
NCI-H522 lung = test system: NCI-H522 lung
OVCAR-3 ovarian = test system: OVCAR-3 ovarian
OVCAR-4 ovarian = test system: OVCAR-4 ovarian
RPMI-8226 leukemia = test system: RPMI-8226 leukemia
SNB-19 CNS = test system: SNB-19 CNS
UACC-257 melanoma = test system: UACC-257 melanoma
MCF7 breast = test system: MCF7 breast
BT-549 breast = test system: BT-549 breast

| Compound | TGI (A498 renal) [µM] | TGI (CAKI-1 renal) [µM] | TGI (COLO 205 colon) [µM] | TGI (LOX IMVI melanoma) [µM] | TGI (M14 melanoma) [µM] | TGI (MALME-3M melanoma) [µM] | TGI (NCI-H522 lung) [µM] | TGI (OVCAR-3 ovarian) [µM] | TGI (OVCAR-4 ovarian) [µM] | TGI (RPMI-8226 leukemia) [µM] | TGI (SNB-19 CNS) [µM] | TGI (UACC-257 melanoma) [µM] | TGI (MCF7 breast) [µM] | TGI (BT-549 breast) [µM] |
| --- | --- | --- | --- | --- | --- | --- | --- | --- | --- | --- | --- | --- | --- | --- |
| NC(CCCNc1cccc(O)c1)C(=O)O (stereo unspecified) | > 100 | > 100 | > 100 | > 100 | > 100 | > 100 | > 100 | > 100 | > 100 | > 100 | > 100 | > 100 | – | – |
| COc1cc2c(oc(=O)c3cc4ccoc4c(OC)c32)c2cccc(O)c12 | > 100 | > 100 | > 100 | > 100 | > 100 | > 100 | > 100 | > 100 | > 100 | > 100 | > 100 | > 100 | – | – |
| CC(C)C(Sc1nc(-c2ccccc2)c(-c2ccccc2)[nH]1)C(=O)N/N=C/c1ccc([N+](=O)[O-])cc1 (stereo unspecified) | 42.6 | 47.9 | 24.9 | 26 | 21.6 | 30 | 32.4 | 21.3 | 80.5 | 47.6 | 41.7 | 28.8 | – | – |
| O=C1/C(=C/c2ccc(Cl)cc2)N=C(c2ccccc2)N1C1Nc2cc3c(cc2S1)NC(N1C(=O)/C(=C/c2ccc(Cl)cc2)N=C1c1ccccc1)S3 (stereo unspecified) | > 100 | > 100 | – | > 100 | > 100 | – | 63.3 | > 100 | > 100 | > 100 | – | > 100 | > 100 | – |
| CC(C)c1ccc2c(c1)C=C1OC(=O)[C@]3(C)CCC[C@@]2(C)C13 (stereo partly specified) | – | > 100 | > 100 | – | > 100 | – | > 100 | > 100 | > 100 | > 100 | > 100 | > 100 | > 100 | > 100 |
| COP(=O)(OC)C(O)/C=C(\Cl)c1ccc(Cl)cc1 (stereo unspecified) | – | > 100 | > 100 | 52.1 | > 100 | > 100 | > 100 | 43.3 | > 100 | 63.4 | > 100 | 84.6 | > 100 | – |
| CNC(=O)c1n[nH]n(Cc2ccccc2)c1=S | – | > 100 | > 100 | – | > 100 | – | – | > 100 | > 100 | > 100 | > 100 | > 100 | > 100 | > 100 |
| CC1(C)O[C@H]2[C@@H]3N=C(c4ccccc4)O[C@@H]3C=C[C@H]2O1 | > 100 | > 100 | > 100 | > 100 | > 100 | – | 17.4 | > 100 | > 100 | > 100 | > 100 | > 100 | > 100 | > 100 |
| CCN(CC)c1nc(N(C)C)c2ccc(OC)cc2n1 | – | > 100 | 21.6 | 42.3 | 22.2 | 55.1 | 30.3 | – | > 100 | 31 | 70 | 28.1 | 25 | 64.8 |
| CC(C)[Si](OCC1CC(C[C@H]2CC(C[C@H]3C[C@@H](CO[Si](C(C)C)(C(C)C)C(C)C)OC(C)(C)O3)OC(C)(C)O2)OC(C)(C)O1)(C(C)C)C(C)C (stereo partly specified) | > 100 | > 100 | > 100 | > 100 | > 100 | > 100 | > 100 | > 100 | > 100 | > 100 | > 100 | > 100 | – | – |
| Cc1cc(C)nc(NS(=O)(=O)c2ccc(NNC(=O)c3cccc4c(NNc5ccc(S(=O)(=O)Nc6nc(C)cc(C)n6)cc5)c5ccccc5nc34)cc2)n1 | – | 41.8 | 46.3 | 31.3 | 32.6 | 51.8 | 40.8 | 66.5 | 68 | 64.9 | 72.7 | 71.3 | 62.4 | 71.4 |
| O=c1oc2cc(O)ccc2cc1-c1nc2ccccc2s1 | 51.1 | 74.6 | 11 | 90.2 | 82.9 | – | – | 45.6 | > 100 | > 100 | > 100 | 58.2 | 67 | 51 |
| CC(=O)[O-].CC(=O)[O-].O=C(N/N=C/c1cc(Cl)cc(Cl)c1[OH2+])c1ccncc1.[Zn+2] | > 100 | – | > 100 | > 100 | > 100 | > 100 | > 100 | 94.8 | – | > 100 | > 100 | > 100 | – | – |
| Cn1c(=O)c2nc3nnc(C#N)c(N)n3c2n(C)c1=O | > 100 | > 100 | > 100 | – | > 100 | 81.2 | > 100 | > 100 | > 100 | > 100 | – | – | > 100 | > 100 |
| COC1=CC(=O)c2c(O)ccc(O)c2C1=O | 31.6 | – | 3.07 | – | 1.89 | 0.357 | 26 | 5.03 | 27.2 | 38.2 | 18.8 | 2.88 | 8.02 | 6.17 |
| O=C(Nc1nncs1)NS(=O)(=O)n1cnc2ccccc21 | > 100 | > 100 | > 100 | – | > 100 | > 100 | > 100 | > 100 | > 100 | > 100 | > 100 | > 100 | – | > 100 |
| O=C1c2ccccc2C(=O)C2C3c4ccccc4C(c4ccccc43)C12 (stereo unspecified) | – | – | > 100 | 28.9 | > 100 | 38.8 | > 100 | 45.8 | – | 25.7 | > 100 | > 100 | – | – |
| c1ccc(SC(Sc2ccccc2)c2ccc3c(c2)OCO3)cc1 | > 100 | > 100 | – | > 100 | > 100 | > 100 | > 100 | > 100 | > 100 | – | > 100 | > 100 | – | > 100 |
